Molecules are shown by their SMILES. pEC50: −log10 of the molar value. Some results are limits rather than exact numbers.

The nature of data set [1]: Apparent permeability in human Caco-2 cells at 25 umol/L incubated for 2 hrs by LC/MS/MS analysis. Type of data set: ADME, cell-based. Conditions: dose 25 µmol/L. A general note: Caco-2 cells form a polarised layer with tight junctions and transporters.
The nature of data set [2]: Metabolic stability in human liver microsomes assessed as compound remaining at 5 umol/L measured after 60 mins by UPLC/MS analysis. The following applies: dose 5 µmol/L, read-out: Stability. Type of data set: ADME, Microsome. Background: Microsomes from liver hold many membrane-bound enzymes, among them those of drug oxidation.
The nature of data set [3]: Elimination half life in CD(SD) rat at 1 mg/kg, iv administered as single dose and measured after 24 hrs. It counts as ADME, organism-based. Conditions: in vivo, read-out: beta t1/2 (converted).
A short description of data set [4]: Total body clearance in CD(SD) rat at 1 mg/kg, iv administered as single dose and measured after 24 hrs. It counts as ADME, organism-based. Conditions: in vivo.
A short description of data set [5]: MRT in CD(SD) rat at 3 mg/kg, po administered as single dose and measured after 24 hrs. Type of data set: ADME, organism-based. The following applies: in vivo.
Data set [6] can be described thus: Lipophilicity, logD of compound by RP-HPLC analysis. Type of data set: physicochemical.
The nature of data set [7]: Oral bioavailability in CD(SD) rat at 3 mg/kg administered as single dose and measured after 24 hrs. It counts as ADME, organism-based. Conditions: in vivo.
A short description of data set [8]: Volume of distribution at steady state in CD(SD) rat at 1 mg/kg, iv administered as single dose and measured after 24 hrs. Type of data set: ADME, organism-based. Conditions: in vivo, read-out: Vdss.
A short description of data set [9]: AUCinfinity in CD(SD) rat at 3 mg/kg, po administered as single dose and measured after 24 hrs. The following applies: in vivo. It counts as ADME, organism-based.
The target of data set [10] is T1, Nuclear receptor ROR-gamma (Homo sapiens, UniProt P51449).
T1 sequence (P51449 whole entry): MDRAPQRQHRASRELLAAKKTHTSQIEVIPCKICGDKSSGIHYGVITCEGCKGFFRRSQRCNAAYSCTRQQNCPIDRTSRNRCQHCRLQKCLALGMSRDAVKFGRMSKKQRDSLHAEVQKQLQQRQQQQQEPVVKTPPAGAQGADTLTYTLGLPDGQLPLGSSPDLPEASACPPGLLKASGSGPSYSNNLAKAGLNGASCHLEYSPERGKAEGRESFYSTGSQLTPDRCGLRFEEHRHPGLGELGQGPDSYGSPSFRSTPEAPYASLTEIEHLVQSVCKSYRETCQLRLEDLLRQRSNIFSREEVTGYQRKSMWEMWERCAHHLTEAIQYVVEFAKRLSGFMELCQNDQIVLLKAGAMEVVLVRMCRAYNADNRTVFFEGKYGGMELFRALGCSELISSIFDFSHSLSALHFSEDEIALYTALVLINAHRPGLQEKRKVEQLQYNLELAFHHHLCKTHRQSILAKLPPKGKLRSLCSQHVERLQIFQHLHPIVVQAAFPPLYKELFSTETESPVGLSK
Description: Inhibition of GAL4 DNA-binding domain fused RORgamma (unknown origin) transfected in CHO-K1 cells incubated for 2 days by luciferase assay. It counts as cell-based.

Turning to `Cc1ccc(NC(=O)C[C@H](CCC(=O)O)c2nnn([C@H]3C[C@@H](CC(C)(C)C)C3)c2C2CC2)c(Cl)c1`, the Papp – broadly, a coefficient for how fast a substance crosses the barrier – at 2 h, 25 µM in data set [1] was determined as 30.9 ×10⁻⁶ cm/s. Further, in data set [2], the remaining at 1 h, 5 µM is 86%. The half-life in [3] is 1.5 h. Further, in data set [4], the clearance (as a rule, the volume of plasma or blood freed of the substance per unit of time) is 16.5 mL/min/kg. Further, the MRT (in general, a mean duration of stay, worked out from the concentration-time curve) in data set [5] came to 3.6 h. Besides, the logD (in general, the decadic logarithm of the distribution of all forms, ionised or not, between an organic phase and buffer at a given pH) in [6] is 4.2. In [7], the bioavailability (as a rule, dose-corrected exposure relative to a reference, in per cent) turned out to be 46%. Moreover, the Vd in data set [8] was 0.67 L/kg. For the same compound, the AUC(0-inf) (in general, total exposure, with the tail of the curve extrapolated) in data set [9] stood at 2.8 µM·h.
As to `Cc1ccc(NC(=O)C[C@H](Cc2nc(C(=O)O)cs2)c2noc([C@H]3C[C@@H](CC(C)C)C3)c2C2CC2)c(C)c1`, the apparent permeability coefficient (Papp) at 2 h, 25 µM in data set [1] stood at 7.5 ×10⁻⁶ cm/s. Besides, the remaining at 1 h, 5 µM in data set [2] was found to be 71%. Besides, the pEC50 – broadly, the EC50 on a negative log10 scale, so that one unit is a factor of ten – in [10] was 6.96. Further, the log distribution coefficient (logD) in data set [6] turned out to be 4.2.
In the same order, the values of `Cc1ccc(NC(=O)CC(c2nnc([C@H]3C[C@@H](CC(C)C)C3)n2C2CC2)C2CNC2)c(C)c1.Cl` (mixture of isomers) are under 0.1 ×10⁻⁶ cm/s, 95%, under 4.70 and 3.7.
On to `Cc1ccc(NC(=O)C[C@H](CCC(=O)O)n2nnc([C@H]3C[C@@H](CC(C)(C)C)C3)c2C2CC2)c(Cl)c1`, for which the Papp at 2 h, 25 µM in data set [1] is 22.6 ×10⁻⁶ cm/s. For the same compound, in data set [2], the remaining at 1 h, 5 µM was 73%. Also, the pEC50 in data set [10] was 7.66. Moreover, the half-life in data set [3] was 1.5 h. Besides, in data set [4], the clearance was 30 mL/min/kg. Further, the MRT in data set [5] was found to be 2.5 h. This compound gave a log distribution coefficient (logD) in data set [6] of 4.3. The bioavailability in [7] amounted to 61%. In addition, the Vd in data set [8] came out at 1.4 L/kg. The compound further had an AUC(0-inf) in data set [9] of 2 µM·h.
Take `Cc1ccc(NC(=O)CC(Cc2ncco2)c2nnc([C@H]3C[C@@H](CC(C)C)C3)n2C2CC2)c(C)c1` (mixture of isomers): the apparent permeability (Papp) at 2 h, 25 µM in [1] was 27 ×10⁻⁶ cm/s. For the same compound, the remaining at 1 h, 5 µM in [2] was 75%. This compound showed a negative-log EC50 (pEC50) in data set [10] of over 7.49. Further, the logD in [6] came to 4.5.
The matching figures for `Cc1ccc(NC(=O)C[C@@H](c2noc([C@H]3C[C@@H](CC(C)C)C3)c2C2CC2)C(C)(C)C(=O)O)c(C)c1`: 27.6 ×10⁻⁶ cm/s, 77%, 6.59 and 5.
The matching figures for `Cc1ccc(NC(=O)C[C@H](CC(=O)O)c2noc([C@H]3C[C@@H](CC(C)C)C3)c2C(C)C)c(C)c1`: 23.3 ×10⁻⁶ cm/s, 37%, 6.18 and 4.4.
In the same order, the values of `Cc1ccc(C)c(NC(=O)C[C@H](CC(=O)O)c2noc([C@H]3C[C@@H](CC(C)C)C3)c2C2CC2)c1` are 35.5 ×10⁻⁶ cm/s, 76%, 7.19 and 4.2.
As for `Cc1ccc(NC(=O)C[C@H](CC(C)(C)O)c2nnc([C@H]3C[C@@H](CC(C)C)C3)n2C2CC2)c(C)c1.Cl`, the Papp at 2 h, 25 µM in data set [1] is 25.3 ×10⁻⁶ cm/s. In addition, the remaining at 1 h, 5 µM in [2] was determined as 0%. The compound also had a pEC50 in [10] of 7.52. The same compound gave a logD in data set [6] of 4.4.
Regarding `Cc1ccc(NC(=O)C[C@H](CC(=O)O)c2noc([C@H]3C[C@@H](CC(C)C)C3)c2C2CC2)c(Cl)c1`, in data set [1], the Papp at 2 h, 25 µM was found to be 27.4 ×10⁻⁶ cm/s. For the same compound, the remaining at 1 h, 5 µM in [2] came out at 67%. In addition, the pEC50 in [10] was 7.37. In [6], this compound yielded a logD of 4.4.
The matching figures for `CC(C)C[C@H]1C[C@@H](c2onc([C@@H](CC(=O)O)CC(=O)Nc3ccc(Cl)cc3F)c2C2CC2)C1`: 29.9 ×10⁻⁶ cm/s, 67%, 7.01 and 4.4.
